Measurements from US20230111310A1, “CARBOXYLIC ACID DERIVATIVE-SUBSTITUTED IMINO ARYL COMPOUND, PREPARATION METHOD THEREFOR, HERBICIDAL COMPOSITION AND USE THEREOF” (Qingdao Kingagroot Chemical Compound Co., Ltd., priority 2020, published 2023).

Tested on: Setaria viridis
Assay: Weeding effect in post-emergence stage
Assay type: in vivo
Conditions: Dose 15 g/ha; fresh weight control rate level
Summary of the method: (§1)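 Doses of 500, 250, 125, 60, 30, 15 and 7.5 g/ha, with methyl oleate synergist (1.5 liter/ha) and Tween 80 from acetone solution, applied by spray tower post-emergence (2–3 leaf stage). Weed control scored after 3 further greenhouse weeks, averaged over triplicates.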

| SMILES | Weeding effect in post-emergence stage, Setaria viridis (level) |
| --- | --- |
| CCCSC(=O)[C@@H](C)O/N=C/c1cc(-n2c(=O)cc(C(F)(F)F)n(C)c2=O)c(F)cc1Cl [399(R)] | 5 (Level 5: growth control rate is above 85%) |
| CC(C)SC(=O)[C@@H](C)O/N=C/c1cc(-n2c(=O)cc(C(F)(F)F)n(C)c2=O)c(F)cc1Cl [400(R)] | 5 (Level 5: growth control rate is above 85%) |
| COC(=O)CSC(=O)[C@@H](C)O/N=C/c1cc(-n2c(=O)cc(C(F)(F)F)n(C)c2=O)c(F)cc1Cl [406(R)] | 5 (Level 5: growth control rate is above 85%) |
| COC(=O)CCNC(=O)[C@@H](C)O/N=C/c1cc(-n2c(=O)cc(C(F)(F)F)n(C)c2=O)c(F)cc1Cl [416(R)] | 5 (Level 5: growth control rate is above 85%) |
| CON(C)C(=O)[C@@H](C)O/N=C/c1cc(-n2c(=O)cc(C(F)(F)F)n(C)c2=O)c(F)cc1Cl [419(R)] | 5 (Level 5: growth control rate is above 85%) |

Same assay, conditions: Dose 30 g/ha; fresh weight control rate level

| SMILES | Weeding effect in post-emergence stage, Setaria viridis (level) |
| --- | --- |
| C[C@@H](O/N=C/c1cc(-n2c(=O)cc(C(F)(F)F)n(C)c2=O)c(F)cc1Cl)C(=O)SCc1ccccc1 [409(R)] | 5 (Level 5: growth control rate is above 85%) |
| Cc1cc(C)n(C(=O)[C@@H](C)O/N=C/c2cc(-n3c(=O)cc(C(F)(F)F)n(C)c3=O)c(F)cc2Cl)n1 [424(R)] | 5 (Level 5: growth control rate is above 85%) |

Tested on: Abutilon theophrasti
Assay: Weeding effect in post-emergence stage
Assay type: in vivo
Conditions: Dose 15 g/ha; fresh weight control rate level
Summary of the method: as §1

| SMILES | Weeding effect in post-emergence stage, Abutilon theophrasti (level) |
| --- | --- |
| CCCSC(=O)[C@@H](C)O/N=C/c1cc(-n2c(=O)cc(C(F)(F)F)n(C)c2=O)c(F)cc1Cl [399(R)] | 5 (Level 5: growth control rate is above 85%) |
| CC(C)SC(=O)[C@@H](C)O/N=C/c1cc(-n2c(=O)cc(C(F)(F)F)n(C)c2=O)c(F)cc1Cl [400(R)] | 5 (Level 5: growth control rate is above 85%) |
| COC(=O)CSC(=O)[C@@H](C)O/N=C/c1cc(-n2c(=O)cc(C(F)(F)F)n(C)c2=O)c(F)cc1Cl [406(R)] | 5 (Level 5: growth control rate is above 85%) |
| COC(=O)CCNC(=O)[C@@H](C)O/N=C/c1cc(-n2c(=O)cc(C(F)(F)F)n(C)c2=O)c(F)cc1Cl [416(R)] | 5 (Level 5: growth control rate is above 85%) |
| CON(C)C(=O)[C@@H](C)O/N=C/c1cc(-n2c(=O)cc(C(F)(F)F)n(C)c2=O)c(F)cc1Cl [419(R)] | 5 (Level 5: growth control rate is above 85%) |

Same assay, conditions: Dose 30 g/ha; fresh weight control rate level

| SMILES | Weeding effect in post-emergence stage, Abutilon theophrasti (level) |
| --- | --- |
| C[C@@H](O/N=C/c1cc(-n2c(=O)cc(C(F)(F)F)n(C)c2=O)c(F)cc1Cl)C(=O)SCc1ccccc1 [409(R)] | 5 (Level 5: growth control rate is above 85%) |
| Cc1cc(C)n(C(=O)[C@@H](C)O/N=C/c2cc(-n3c(=O)cc(C(F)(F)F)n(C)c3=O)c(F)cc2Cl)n1 [424(R)] | 5 (Level 5: growth control rate is above 85%) |

Tested on: Eleusine indica
Assay: Weeding effect in post-emergence stage
Assay type: in vivo
Conditions: Dose 15 g/ha; fresh weight control rate level
Summary of the method: as §1

| SMILES | Weeding effect in post-emergence stage, Eleusine indica (level) |
| --- | --- |
| CCCSC(=O)[C@@H](C)O/N=C/c1cc(-n2c(=O)cc(C(F)(F)F)n(C)c2=O)c(F)cc1Cl [399(R)] | 5 (Level 5: growth control rate is above 85%) |
| CC(C)SC(=O)[C@@H](C)O/N=C/c1cc(-n2c(=O)cc(C(F)(F)F)n(C)c2=O)c(F)cc1Cl [400(R)] | 5 (Level 5: growth control rate is above 85%) |
| COC(=O)CSC(=O)[C@@H](C)O/N=C/c1cc(-n2c(=O)cc(C(F)(F)F)n(C)c2=O)c(F)cc1Cl [406(R)] | 5 (Level 5: growth control rate is above 85%) |
| COC(=O)CCNC(=O)[C@@H](C)O/N=C/c1cc(-n2c(=O)cc(C(F)(F)F)n(C)c2=O)c(F)cc1Cl [416(R)] | 5 (Level 5: growth control rate is above 85%) |
| CON(C)C(=O)[C@@H](C)O/N=C/c1cc(-n2c(=O)cc(C(F)(F)F)n(C)c2=O)c(F)cc1Cl [419(R)] | 5 (Level 5: growth control rate is above 85%) |

Same assay, conditions: Dose 30 g/ha; fresh weight control rate level

| SMILES | Weeding effect in post-emergence stage, Eleusine indica (level) |
| --- | --- |
| C[C@@H](O/N=C/c1cc(-n2c(=O)cc(C(F)(F)F)n(C)c2=O)c(F)cc1Cl)C(=O)SCc1ccccc1 [409(R)] | 5 (Level 5: growth control rate is above 85%) |
| Cc1cc(C)n(C(=O)[C@@H](C)O/N=C/c2cc(-n3c(=O)cc(C(F)(F)F)n(C)c3=O)c(F)cc2Cl)n1 [424(R)] | 5 (Level 5: growth control rate is above 85%) |

Tested on: Digitaria sanguinalis
Assay: Weeding effect in post-emergence stage
Assay type: in vivo
Conditions: Dose 15 g/ha; fresh weight control rate level
Summary of the method: as §1

| SMILES | Weeding effect in post-emergence stage, Digitaria sanguinalis (level) |
| --- | --- |
| CCCSC(=O)[C@@H](C)O/N=C/c1cc(-n2c(=O)cc(C(F)(F)F)n(C)c2=O)c(F)cc1Cl [399(R)] | 5 (Level 5: growth control rate is above 85%) |
| CC(C)SC(=O)[C@@H](C)O/N=C/c1cc(-n2c(=O)cc(C(F)(F)F)n(C)c2=O)c(F)cc1Cl [400(R)] | 5 (Level 5: growth control rate is above 85%) |
| COC(=O)CSC(=O)[C@@H](C)O/N=C/c1cc(-n2c(=O)cc(C(F)(F)F)n(C)c2=O)c(F)cc1Cl [406(R)] | 5 (Level 5: growth control rate is above 85%) |
| COC(=O)CCNC(=O)[C@@H](C)O/N=C/c1cc(-n2c(=O)cc(C(F)(F)F)n(C)c2=O)c(F)cc1Cl [416(R)] | 5 (Level 5: growth control rate is above 85%) |
| CON(C)C(=O)[C@@H](C)O/N=C/c1cc(-n2c(=O)cc(C(F)(F)F)n(C)c2=O)c(F)cc1Cl [419(R)] | 5 (Level 5: growth control rate is above 85%) |

Same assay, conditions: Dose 30 g/ha; fresh weight control rate level

| SMILES | Weeding effect in post-emergence stage, Digitaria sanguinalis (level) |
| --- | --- |
| C[C@@H](O/N=C/c1cc(-n2c(=O)cc(C(F)(F)F)n(C)c2=O)c(F)cc1Cl)C(=O)SCc1ccccc1 [409(R)] | 5 (Level 5: growth control rate is above 85%) |
| Cc1cc(C)n(C(=O)[C@@H](C)O/N=C/c2cc(-n3c(=O)cc(C(F)(F)F)n(C)c3=O)c(F)cc2Cl)n1 [424(R)] | 5 (Level 5: growth control rate is above 85%) |

Tested on: Alopecurus japonicus
Assay: Weeding effect in post-emergence stage
Assay type: in vivo
Conditions: Dose 15 g/ha; fresh weight control rate level
Summary of the method: as §1

| SMILES | Weeding effect in post-emergence stage, Alopecurus japonicus (level) |
| --- | --- |
| CCCSC(=O)[C@@H](C)O/N=C/c1cc(-n2c(=O)cc(C(F)(F)F)n(C)c2=O)c(F)cc1Cl [399(R)] | 5 (Level 5: growth control rate is above 85%) |
| CC(C)SC(=O)[C@@H](C)O/N=C/c1cc(-n2c(=O)cc(C(F)(F)F)n(C)c2=O)c(F)cc1Cl [400(R)] | 5 (Level 5: growth control rate is above 85%) |
| COC(=O)CSC(=O)[C@@H](C)O/N=C/c1cc(-n2c(=O)cc(C(F)(F)F)n(C)c2=O)c(F)cc1Cl [406(R)] | 5 (Level 5: growth control rate is above 85%) |
| COC(=O)CCNC(=O)[C@@H](C)O/N=C/c1cc(-n2c(=O)cc(C(F)(F)F)n(C)c2=O)c(F)cc1Cl [416(R)] | 5 (Level 5: growth control rate is above 85%) |
| CON(C)C(=O)[C@@H](C)O/N=C/c1cc(-n2c(=O)cc(C(F)(F)F)n(C)c2=O)c(F)cc1Cl [419(R)] | 5 (Level 5: growth control rate is above 85%) |

Same assay, conditions: Dose 30 g/ha; fresh weight control rate level

| SMILES | Weeding effect in post-emergence stage, Alopecurus japonicus (level) |
| --- | --- |
| C[C@@H](O/N=C/c1cc(-n2c(=O)cc(C(F)(F)F)n(C)c2=O)c(F)cc1Cl)C(=O)SCc1ccccc1 [409(R)] | 5 (Level 5: growth control rate is above 85%) |
| Cc1cc(C)n(C(=O)[C@@H](C)O/N=C/c2cc(-n3c(=O)cc(C(F)(F)F)n(C)c3=O)c(F)cc2Cl)n1 [424(R)] | 5 (Level 5: growth control rate is above 85%) |

Tested on: Echinochloa crusgalli
Assay: Weeding effect in post-emergence stage
Assay type: in vivo
Conditions: Dose 15 g/ha; fresh weight control rate level
Summary of the method: as §1

| SMILES | Weeding effect in post-emergence stage, Echinochloa crusgalli (level) |
| --- | --- |
| CCCSC(=O)[C@@H](C)O/N=C/c1cc(-n2c(=O)cc(C(F)(F)F)n(C)c2=O)c(F)cc1Cl [399(R)] | 5 (Level 5: growth control rate is above 85%) |
| CC(C)SC(=O)[C@@H](C)O/N=C/c1cc(-n2c(=O)cc(C(F)(F)F)n(C)c2=O)c(F)cc1Cl [400(R)] | 5 (Level 5: growth control rate is above 85%) |
| COC(=O)CSC(=O)[C@@H](C)O/N=C/c1cc(-n2c(=O)cc(C(F)(F)F)n(C)c2=O)c(F)cc1Cl [406(R)] | 5 (Level 5: growth control rate is above 85%) |
| COC(=O)CCNC(=O)[C@@H](C)O/N=C/c1cc(-n2c(=O)cc(C(F)(F)F)n(C)c2=O)c(F)cc1Cl [416(R)] | 5 (Level 5: growth control rate is above 85%) |
| CON(C)C(=O)[C@@H](C)O/N=C/c1cc(-n2c(=O)cc(C(F)(F)F)n(C)c2=O)c(F)cc1Cl [419(R)] | 5 (Level 5: growth control rate is above 85%) |

Same assay, conditions: Dose 30 g/ha; fresh weight control rate level

| SMILES | Weeding effect in post-emergence stage, Echinochloa crusgalli (level) |
| --- | --- |
| C[C@@H](O/N=C/c1cc(-n2c(=O)cc(C(F)(F)F)n(C)c2=O)c(F)cc1Cl)C(=O)SCc1ccccc1 [409(R)] | 5 (Level 5: growth control rate is above 85%) |
| Cc1cc(C)n(C(=O)[C@@H](C)O/N=C/c2cc(-n3c(=O)cc(C(F)(F)F)n(C)c3=O)c(F)cc2Cl)n1 [424(R)] | 5 (Level 5: growth control rate is above 85%) |
